Consider six molecules from ChEMBL document CHEMBL4814080, “Design, Synthesis, and Biological Evaluation of Novel 1,3-Oxazole Sulfonamides as Tubulin Polymerization Inhibitors” (ACS Med Chem Lett, 2021).

Active and inactive are the calls of the source. The rule behind the calls is not given here.

Test [1] relates to Panel NCI-60 (60 carcinoma cell lines). As to the kind of experiment: Cytotoxicity against human Panel NCI-60 (60 carcinoma cell lines) assessed as cell growth at 10 uM after 48 hrs by sulforhodamine B assay relative to control. In kind it is functional. To be noted: read-out: Activity.
In test [2] the test system is leukaemia cell line. As to the kind of experiment: Cytotoxicity against human leukaemia cell line assessed as cell growth inhibition measured after 48 hrs by sulforhodamine B assay. It is filed as functional. The settings on record: for CC50: read-out: LC50 (the source's name).
Test [3] is described as follows: (§1) Inhibition of porcine brain tubulin polymerization incubated for 60 mins by spectrophotometry. In kind it is tissue-based, Sus scrofa.
The species entered for test [4] is Sus scrofa. The test is described as §1. In kind it is tissue-based.
Test [5] concerns TK-10. The test can be described thus: Cytotoxicity against human TK-10 cells assessed as cell growth at 10 uM after 48 hrs by sulforhodamine B assay relative to control. In kind it is functional. To be noted: read-out: Activity.
In test [6] the test system is SR. As to the kind of experiment: Cytotoxicity against human SR cells assessed as cell growth at 10 uM after 48 hrs by sulforhodamine B assay relative to control. The settings on record: read-out: Activity. It is filed as functional.
Test [7] relates to MOLT-4. As to the kind of experiment: Cytotoxicity against human MOLT-4 cells assessed as cell growth at 10 uM after 48 hrs by sulforhodamine B assay relative to control. It is filed as functional. To be noted: read-out: Activity.
Test [8] concerns COLO 205. As to the kind of experiment: Cytotoxicity against human COLO 205 cells assessed as cell growth at 10 uM after 48 hrs by sulforhodamine B assay relative to control. It is filed as functional. To be noted: read-out: Activity.
For test [9], the system named is SK-OV-3. The test can be described thus: Cytotoxicity against human SK-OV-3 cells assessed as cell growth at 10 uM after 48 hrs by sulforhodamine B assay relative to control. The settings on record: read-out: Activity. In kind it is functional.
Test [10] has as its system NCI/ADR-RES. As to the kind of experiment: Cytotoxicity against human NCI/ADR-RES cells assessed as cell growth at 10 uM after 48 hrs by sulforhodamine B assay relative to control. It is filed as functional. To be noted: read-out: Activity.
The subject of test [11] is Panel NCI-60 (60 carcinoma cell lines). As to the kind of experiment: Cytotoxicity against human Panel NCI-60 (60 carcinoma cell lines) assessed as cell growth inhibition measured after 48 hrs by sulforhodamine B assay. It is filed as functional.

In the case of `Cc1cc(NS(=O)(=O)c2ccc(-c3cnc(C4CC4)o3)cc2)ccc1Cl`, in test [1], the growth at 10 µM was 21.7%. Also, in test [2], the GI50 was 216 nM, the TGI was 33.4 µM and the CC50 is above 100 µM. In test [3], this molecule returned an IC50 below 80 nM.
In the same order, the values of `O=S(=O)(Nc1ccc(Br)c(Cl)c1)c1ccc(-c2cnc(C3CC3)o2)cc1` are 21.5%, 491 nM, 70.3 µM, above 100 µM and below 80 nM.
As for `O=S(=O)(Nc1ccc(Cl)c(Cl)c1)c1ccc(-c2cnc(C3CC3)o2)cc1`, the growth at 10 µM in test [1] turned out to be 25.3%. In test [2], the GI50 was 416 nM, the TGI turned out to be 62.1 µM and the CC50 was above 100 µM. Also, the IC50 in [3] was below 80 nM.
As for `CC(=O)O[C@H]1C(=O)[C@@]2(C)[C@H]([C@H](OC(=O)c3ccccc3)[C@]3(O)C[C@H](OC(=O)[C@H](O)[C@@H](NC(=O)c4ccccc4)c4ccccc4)C(C)=C1C3(C)C)[C@]1(OC(C)=O)CO[C@@H]1C[C@@H]2O`, in test [4], the inhibition entry is “inactive”.
Turning to `O=S(=O)(Nc1ccc(Br)cc1)c1ccc(-c2cnc(C3CC3)o2)cc1`, the growth at 10 µM in [5] was determined as 64.1%; in test [1] it was 26.9%; in test [6], 12.7%; in [7] it was 15.8%; in [8] it was 23.9%; in test [9] it was 35.5%. Also, in test [10], the growth at 10 µM was -2.2%. For the same molecule, the GI50 in test [11] amounted to 2750 nM. Moreover, the LC50 (concentration causing 50% net cell kill) in [11] worked out at 54 µM.
As for `O=S(=O)(Nc1ccc(Cl)c(C(F)(F)F)c1)c1ccc(-c2cnc(C3CC3)o2)cc1`, the growth at 10 µM in test [5] worked out at 3%; in test [1], 11.4%; in test [6] it was 3.5%; in test [7], 5.2%; in [8] it was 2.7%; in [9] it was 0.8%. Also, the growth at 10 µM in test [10] is 2.9%. In [11], the GI50 came out at 655 nM. Also, the LC50 (concentration causing 50% net cell kill) in [11] came to 55.4 µM. The midpoint of inhibition in test [3], the IC50, lay at 220 nM.
